{
  "source": "patent US10711007B2",
  "about": "“Selective inhibitors of protein arginine methyltransferase 5 (PRMT5)” (Prelude Therapeutics, Incorporated, priority 2018, dated 2020)",
  "assay_type_in_all_cases": "cell-based",
  "key": {"[1]": {"test_system": "γ-globin expression in K562 cells", "assay": "γ-globin induction by quantitative PCR in K562 cells", "details": "1 μM, 6 days of treatment, N=1", "protocol": "Compounds were dissolved in DMSO to make 10 mM stock solutions, and further diluted to make 1 mM and 0.1 mM stocks.\nK562 cells were purchased from ATCC and maintained in Iscove's DMEM (Corning Cellgro, Catalog #15-016-CVR) supplemented with 10% v/v FBS (GE Healthcare, Catalog #: SH30910.03) in a CO2 incubator (5% CO2) at 37° C. Cells were plated at a density of 5×10^5 cells/ml and treated with compound at final concentrations of 0.1 and 1 μM. Media and compound were renewed after 3 days in culture and cells were collected for RNA isolation after 6 days of treatment.\nAssessment of γ-Globin Induction by Quantitative PCR\nRNA was isolated using Quick-RNA Microprep kit (Zymo Research, Catalog # Z1050), cDNA was synthesized using qScript cDNA SuperMix (Quantabio, Catalog #95048). Quantitative PCR for y-globin was performed using PerfeCTa SYBR Green FastMix (Quantabio, Catalog #95071) on Bio-Rad CFX Connect Real-Time PCR Detection System. Gene expression analysis was performed using CFX Manager software.\nAssessment of γ-Globin Induction by Quantitative PCR in K562 Cells\nCompounds were dissolved in DMSO to make 10 mM stock solutions, and further diluted to make 1 mM and 0.1 mM stocks. K562 cells were purchased from ATCC and maintained in Iscove's DMEM (Corning Cellgro, Catalog #15-016-CVR) supplemented with 10% v/v FBS (GE Healthcare, Catalog #: SH30910.03) in a CO2 incubator (5% CO2) at 37° C. […]"}, "[2]": {"test_system": "sDMA marks (SmD3me2s) in U-87 MG cells", "assay": "Western blotting for symmetric di-methyl arginine (sDMA) marks in U-87 MG cells", "details": "Homo sapiens, 72 h; U-87 MG cell line, 3 days", "protocol": "Cell Treatment and Western Blotting for Detecting Symmetric Di-Methyl Arginine (sDMA) Marks\nCompound Titration and Cell Culture:\nCompounds were dissolved in DMSO to make 10 mM stock and 3-fold series dilutions were further conducted to make working stocks top at 1 mM. Granta-519 cells were maintained in PRMI 1640 (Corning Cellgro, Catalog #: 10-040-CV) supplemented with 10% v/v FBS (GE Healthcare, Catalog #: SH30910.03) and U-87 MG cells were maintained in DMEM (Corning Cellgro, Catalog #: 10-013-CV) with 10% FBS and 2 mM Glutamin (Corning Cellgro, Catalog #25005CV).\nTo determine enzyme inhibition IC50 values in Granta-519 and U-87 MG cells using Western Blot analysis. One day before experiment, Granta-519 cells were passaged to a density of 0.5×10^6 cells/ml. U-87 MG cells were trypsinized and 4×10^5 cells were seeded into 6-well plates and allow to grow overnight. The next day, Granta-519 cells were spun down at 1,500 rpm for 4 min, resuspend in fresh medium at 0.5×10^6 cells/ml and 3 mL of culture (1.5×10^6 cells) were seeded into 6 well plate. Eight-point, 3-fold serial dilutions of compound working stocks were added to cells (3 ul, 1:1,000 dilution, DMSO concentration was 0.1%; final top concentration at 1 uM) and incubated for 3 days. Cells incubated with DMSO was used as a vehicle control.\nCells were harvested 3 days later, resuspended in 15 uL PBS, lysed in 4% SDS, and homogenized by passing through homogenizer column (Omega Biotek, Catalog #: HCR003). Total protein concentrations were determined by BCA assay (ThermoFisher Scientific, Catalog #: 23225). Lysates were mixed with 5× Laemmli buffer and boiled for 5 min. Forty ug of total protein was separated on SDS-PAGE gels (Bio-Rad, catalog #: 4568083, 4568043), transferred to PVDF membrane, blocked with 5% dry milk (Bio-Rad, Catalog #: 1706404) in TBS with 0.1% v/v Tween 20 (TBST) for 1 hour at room temperature (RT), and incubated with primary antibodies (sDMA: Cell signaling, Catalog #: 13222, 1:3,000; β-Actin: sigma, Catalog #: 1:5,000) in 5% dry milk in TBST at 4° C. overnight. The next day, membranes were washed with TBST, 5×5 min, and incubated with HRP conjugated seconded antibody (GE Healthcare; Catalog #: NA934-1ML, NA931-1ML; 1:5,000) for 2 hours at RT, followed by 5×5 min washes with TBST, and incubation with ECL substrates (Bio-Rad, Catalog #: 1705061, 1705062). Chemiluminescent signal was captured with Fluochem HD2 imager (Proteinsimple). SmD3me2s bands were quantified by ImageJ. Signals were normalized to β-Actin and DMSO control. IC50 values were calculated using Graphpad Prism ([Inhibitor] vs. normalized response-Variable slope)."}, "[3]": {"test_system": "fetal hemoglobin expressing erythroid cells (% F cells)", "assay": "% F cells by flow cytometry in human erythroid cells", "details": "erythroid progenitors, Day 7 of treatment, N=1", "protocol": "Human erythroid progenitor cells were generated from purified CD34+ cells from mobilized peripheral blood purchased from AllCells. CD34+ cells were cultured in StemSpan SFEM II (StemCell Technologies, Catalog #09605) supplemented with 100 ng/ml FLT3 ligand (R&D systems, Catalog #308-FK), 100 ng/ml SCF (R&D systems, Catalog #255-SC), 20 ng/ml IL-3 (R&D systems, Catalog #203-IL), 20 ng/ml IL-6 (R&D systems, Catalog #206-IL) for 6 days, then reseeded into the same medium supplemented with 20 ng/ml SCF, 5 ng/ml IL-3, 1 U/ml EPO (R&D systems, Catalog #287-TC), 2 μM dexamethasone (Sigma-Aldrich, Catalog # D4902), 1 μM β-estradiol (Sigma-Aldrich, Catalog # E2758). Cells were treated with 0.1 and 1 μM compound from Day 8 of differentiation. Media and compound were renewed every 3 days and cells were collected for RNA isolation after 9 days of treatment.\nAssessment of % F Cells by Flow Cytometry\nHuman erythroid cells were collected on Day 7 of treatment with compound. Cells were fixed in 0.05% glutaraldehyde (Electron Microscopy Sciences, Catalog #16019), permeabilized with 0.1% Triton-X and stained with FITC-conjugated antibody directed to fetal hemoglobin (ThermoFisher, Catalog # MHFH01). Analysis of fetal hemoglobin expressing erythroid cells (% F cells) was performed on an Attune Nxt flow cytometer (ThermoFisher)."}},
  "note": "pIC50: −log10 of the molar value.",
  "data": [
    {"molecule": "Nc1ncnc2c1ccn2[C@@H]1O[C@H]([C@@H]2OCc3ccc(Cl)cc32)[C@@H](O)[C@H]1O", "note": "[Example 5, (2R,3R,4S,5S)-2-(4-amino-7H-pyrrolo[2,3-d]pyrimidin-7-yl)-5-((R)-6-chloro-1,3-dihydroisobenzofuran-1-yl)tetrahydrofuran-3,4-diol]", "values": [
      {"measurement": "increase in expression of γ-globin", "setting": "[1]", "result": 8, "unit": "fold"},
      {"measurement": "pIC50", "setting": "[2]", "result": 7.60},
      {"measurement": "increase in % F cells compared to DMSO treated control", "setting": "[3]; 0.1 μM", "result": 1.3, "unit": "fold"},
      {"measurement": "increase in % F cells compared to DMSO treated control", "setting": "[3]; 1 μM", "result": 3, "unit": "fold"}
    ]}
  ]
}
